A word on the pKd: it is the negative decadic logarithm of the Kd, by convention in mol/L.

Our source for the Kd values is paper PMC5499824 (Nucleic Acids Research, 2017).

Structures are written as SMILES. Numbering of substitutions follows the chain as printed. pKd: −log10 of the molar value.

Assay [1] has as its target T1, hNSun6 (Homo sapiens, UniProt Q8TEA1).
T1 sequence (Q8TEA1 1-469): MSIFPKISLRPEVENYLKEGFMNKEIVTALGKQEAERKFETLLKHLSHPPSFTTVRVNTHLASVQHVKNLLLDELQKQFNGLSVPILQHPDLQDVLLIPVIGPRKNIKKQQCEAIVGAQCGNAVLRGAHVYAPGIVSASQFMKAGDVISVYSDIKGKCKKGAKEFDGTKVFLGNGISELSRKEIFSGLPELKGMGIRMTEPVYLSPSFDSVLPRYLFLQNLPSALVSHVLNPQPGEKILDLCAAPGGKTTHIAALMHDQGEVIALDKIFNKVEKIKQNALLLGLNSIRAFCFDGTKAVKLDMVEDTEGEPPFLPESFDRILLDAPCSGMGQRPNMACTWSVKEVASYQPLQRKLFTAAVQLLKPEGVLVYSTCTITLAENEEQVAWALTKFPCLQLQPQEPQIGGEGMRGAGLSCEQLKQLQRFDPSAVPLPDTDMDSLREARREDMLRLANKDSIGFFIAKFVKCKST
Nature of the assay: isothermal titration calorimetry. The class given is binding. For orientation: Isothermal titration calorimetry measures the heat released or taken up as one component is titrated into another.

The target of assay [2] is T2, hNSun6 (Homo sapiens, UniProt Q8TEA1, K248A).
T2 sequence (Q8TEA1 1-469 K248A): T1 sequence (Q8TEA1 1-469) with K248A
Nature of the assay: isothermal titration calorimetry. Format: binding.

For `C[S+](CC[C@H](N)C(=O)O)C[C@H]1O[C@@H](n2cnc3c(N)ncnc32)[C@H](O)[C@@H]1O` (some centres unmarked) [SAM], the pKd in assay [1] is 5.77; in assay [2], 4.99.
